Data taken from US20260070922A1, “PYRAZOLE AND IMIDAZOLE DERIVATIVES AS DUAL OREXIN AND KAPPA-OPIOID RECEPTORS MODULATORS COMPOSITION, METHODS FOR TREATING NEUROLOGICAL AND PSYCHIATRIC DISORDERS” (HAGER BIOSCIENCES, LLC, priority 2022, published 2026).

What was measured:
[1] = molecular target: T1, Orexin type 1 (OX1R) receptor (Homo sapiens, UniProt O43613); assay: In vitro orexin antagonism assay: intracellular calcium measurement (FLIPR), orexin-A 3 nM as agonist; format: cell-based; conditions: for IC50: first value of IC50/Kb cell; for inhibition at 1 µM: read-out: OX1R, % Inh. @ 1 uM; for Kb: second value of IC50/Kb cell
T1 construct: expressed in transfected cells; host or cells: CHO cells (G418 selection)
T1 sequence (O43613 1-425): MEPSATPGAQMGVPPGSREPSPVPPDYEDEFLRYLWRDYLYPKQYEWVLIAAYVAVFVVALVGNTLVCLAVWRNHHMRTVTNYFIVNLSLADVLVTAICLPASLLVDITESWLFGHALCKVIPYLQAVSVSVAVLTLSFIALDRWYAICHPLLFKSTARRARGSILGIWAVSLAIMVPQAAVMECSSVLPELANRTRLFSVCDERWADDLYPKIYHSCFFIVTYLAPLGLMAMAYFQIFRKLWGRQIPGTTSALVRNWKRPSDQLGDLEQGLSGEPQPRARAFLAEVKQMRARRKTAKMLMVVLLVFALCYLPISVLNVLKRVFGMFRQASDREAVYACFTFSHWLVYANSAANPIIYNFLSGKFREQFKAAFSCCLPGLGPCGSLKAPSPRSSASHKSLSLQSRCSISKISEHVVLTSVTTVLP
Method in brief: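 CHO cells expressing the human orexin receptor were loaded with 3 μM fluo-4 AM plus 5 mM probenecid, then exposed to antagonist for 120 min before 3 nM orexin-A (final) was added on a FLIPR.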

[2] = molecular target: T2, human orexin-2 receptor (OX2R) (Homo sapiens, UniProt O43614); assay: as above; format: cell-based; conditions: for IC50: first value of IC50/Kb cell; for inhibition at 1 µM: read-out: OX2R, % Inh. @ 1 uM; for Kb: second value of IC50/Kb cell
T2 construct: expressed in transfected cells; host or cells: CHO cells (G418 selection)
T2 sequence (O43614 1-444): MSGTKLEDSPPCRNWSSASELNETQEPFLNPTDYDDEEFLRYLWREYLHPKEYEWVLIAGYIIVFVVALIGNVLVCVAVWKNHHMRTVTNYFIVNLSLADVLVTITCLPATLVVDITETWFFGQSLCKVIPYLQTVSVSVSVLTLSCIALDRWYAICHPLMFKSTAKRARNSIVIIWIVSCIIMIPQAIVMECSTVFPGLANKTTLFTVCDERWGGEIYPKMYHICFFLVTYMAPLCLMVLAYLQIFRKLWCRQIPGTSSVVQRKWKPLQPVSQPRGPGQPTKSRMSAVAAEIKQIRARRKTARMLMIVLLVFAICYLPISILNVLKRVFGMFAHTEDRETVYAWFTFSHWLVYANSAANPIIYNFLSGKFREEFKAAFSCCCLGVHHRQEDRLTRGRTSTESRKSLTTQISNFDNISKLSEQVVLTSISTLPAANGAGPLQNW
Method in brief: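 Fluorescence peak on 3 nM orexin-A challenge, read by FLIPR and compared with vehicle, yields IC50 (geometric mean when repeated; may be normalized to an on-plate reference). Antagonists were added 120 min beforehand to fluo-4-loaded recombinant CHO cells expressing human OX1R or OX2R.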

[3] = molecular target: T3, human k-opioid receptor (kOR) (Homo sapiens, UniProt P41145); assay: Human k-opioid (KOP) receptor (agonist radioligand [3H]U-69593) binding assay, transfected RBL cell membranes; conditions: for IC50: first value of IC50/Ki cell; for inhibition at 1 µM: read-out: KOR % Inh. @ 1 uM
T3 construct: expressed in transfected cells; host or cells: RBL cells (membrane homogenates)
Method in brief: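 Membranes from transfected RBL cells (~80 μg protein) incubated 60 min at 22° C with 0.5 nM [3H]U-69593 in 50 mM Tris-HCl pH 7.4, 10 mM MgCl2, 1 mM EDTA. Nonspecific binding defined with 10 μM naloxone; filtration and scintillation counting. Values are percent inhibition of specific radioligand binding.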

[4] = molecular target: T3, human k-opioid receptor (kOR); assay: as above; conditions: second value of IC50/Ki cell

T3 sequence (P41145 whole entry): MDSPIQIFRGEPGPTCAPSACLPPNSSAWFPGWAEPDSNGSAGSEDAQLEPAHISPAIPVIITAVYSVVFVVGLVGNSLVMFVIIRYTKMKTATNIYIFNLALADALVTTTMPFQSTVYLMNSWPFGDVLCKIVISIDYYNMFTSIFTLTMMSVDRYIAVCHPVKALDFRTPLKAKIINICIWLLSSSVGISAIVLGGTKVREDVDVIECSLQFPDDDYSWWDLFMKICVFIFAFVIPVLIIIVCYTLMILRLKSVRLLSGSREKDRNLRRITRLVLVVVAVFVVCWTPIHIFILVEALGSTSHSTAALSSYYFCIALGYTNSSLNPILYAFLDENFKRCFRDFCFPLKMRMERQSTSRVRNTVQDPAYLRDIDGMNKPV

| Compound | IC50 [1] [µM] | inhibition at 1 µM [1] [%] | Kb [1] [µM] | IC50 [2] [µM] | inhibition at 1 µM [2] [%] | Kb [2] [µM] | IC50 [3] [µM] | inhibition at 1 µM [3] [%] | Ki [4] [µM] |
| --- | --- | --- | --- | --- | --- | --- | --- | --- | --- |
| O=C(c1c(-c2ccc(F)cc2)nn2ccccc12)N1CCC[C@H]1Cn1ccc(-c2ccccc2)n1 [Example 44] | 0.005 | 98.8 | 0.001 | 0.22 | 72.3 | 0.031 | 0.69 | 55 | 0.37 |
| O=C(c1c(-c2ccccc2F)nn2ccccc12)N1CCC[C@H]1Cn1cc(-c2ccccc2)cn1 [Example 69] | 0.009 | 100 | 0.002 | 0.023 | 86 | 0.004 | 0.19 | 76 | 0.1 |
| O=C(c1c(-c2ccccc2)nc2ccc(F)cn12)N1CCC[C@H]1Cn1cc(-c2ccccc2)cn1 [Example 75] | 0.16 | 93 | 0.033 | 0.16 | 76 | 0.028 | 0.14 | 86 | 0.077 |
| O=C(c1c(-c2ccccc2)nc2cc(C(F)(F)F)ccn12)N1CCC[C@H]1Cn1cc(-c2ccccc2)cn1 [Example 80] | 0.19 | 87 | 0.04 | 0.079 | 78 | 0.014 | 0.046 | 95 | 0.025 |
| O=C(c1c(-c2ccccc2)nc2cc(C(F)(F)F)ccn12)N1CCC[C@H]1Cn1ccc(-c2ccc(F)cn2)n1 [Example 94] | 0.037 | 88 | 0.008 | 0.036 | 76 | 0.006 | 0.21 | 74 | 0.12 |
| O=C(c1c(-c2ccccc2F)nn2ccccc12)N1[C@H](Cn2ccc(-c3ccc(F)cc3)n2)C[C@@H]2C[C@@H]21 [Example 95] | 0.095 | 91 | 0.02 | – | 50 | – | 0.18 | 87 | 0.099 |
| O=C(c1c(-c2ccccc2)nc2ccc(F)cn12)N1[C@H](Cn2ccc(-c3ccc(F)cc3)n2)C[C@@H]2C[C@@H]21 [Example 97] | 0.16 | 70 | 0.033 | – | 37 | – | 0.08 | 91 | 0.044 |
| O=C(c1nn2ccccc2c1-c1ccccc1)N1CCC[C@H]1Cn1cc(-c2ccc(F)cn2)cn1 [Example 112] | 0.004 | 100 | 0.0008 | 0.015 | 86 | 0.003 | 0.72 | 70 | 0.39 |

Now from value to molecule:

| IC50 [1] [µM] | inhibition at 1 µM [1] [%] | Kb [1] [µM] | IC50 [2] [µM] | inhibition at 1 µM [2] [%] | Kb [2] [µM] | IC50 [3] [µM] | inhibition at 1 µM [3] [%] | Ki [4] [µM] | Compound |
| --- | --- | --- | --- | --- | --- | --- | --- | --- | --- |
| 0.009 | 102 | 0.002 | 0.052 | 79.3 | 0.007 | 0.047 | 92 | 0.025 | O=C(c1c(-c2ccccc2)nc2ccc(F)cn12)N1CCC[C@H]1Cn1ccc(-c2ccc(F)cc2)n1 [Example 49] |
| – | 99 | – | 0.018 | 89 | 0.003 | 0.59 | 59 | 0.32 | O=C(c1c(-c2ccccc2)nc2cc(F)ccn12)N1CCC[C@H]1Cn1ccc(-c2ccc(F)cc2)n1 [Example 50] |
| 0.021 | 97.6 | 0.004 | 0.033 | 95.5 | 0.005 | 0.056 | 93 | 0.031 | O=C(c1c(-c2ccccc2)nc2cc(C(F)(F)F)ccn12)N1CCC[C@H]1Cn1ccc(-c2ccc(F)cc2)n1 [Example 53] |
| 0.25 | 75 | 0.052 | 0.93 | 61 | 0.16 | 0.17 | 79 | 0.094 | O=C(c1c(-c2ccccc2)nc2ccc(F)cn12)N1CCC[C@H]1Cn1ccc(-c2ccc(F)cn2)n1 [Example 92] |
| 0.083 | 92 | 0.018 | 0.52 | 55 | 0.09 | 0.91 | 61 | 0.5 | O=C(c1c(-c2ccccc2F)nn2ccccc12)N1[C@H](Cn2ccc(-c3ccc(F)cn3)n2)C[C@@H]2C[C@@H]21 [Example 107] |
| 0.02 | 95 | 0.004 | 0.371 | 85 | 0.064 | 0.09 | 91 | 0.049 | [2H]C1([2H])CC[C@@]([2H])(Cn2ccc(-c3ccc(F)cc3)n2)N1C(=O)c1c(-c2ccccc2)nc2ccc(F)cn12 [Example 177] |
